Measurements published in patent CN106420773A, “一种治疗放射性肠炎的中西药组合物及其制备方法和应用” (Zhengzhou Lidiya Medicine Technology Co Ltd, priority 2016, dated 2017).

Experiment: Clinical trial in patients receiving pelvic radiotherapy (radiation enteritis)
Type: in vivo, human
Conditions: once daily, 10 days, with conventional radiotherapy
[1] = number of patients of 50 per group

CC(O)C(=O)[O-].CC(O)C(=O)[O-].[Ca+2] (stereo not shown) [对比例2, 乳酸钙]
total effective rate (50 patients per group): 4%
cured [1]: 0
improved [1]: 2
ineffective [1]: 48
